# Source: publication PMC4398322, “Snake neurotoxin α-bungarotoxin is an antagonist at native GABAA receptors” (Neuropharmacology, 2015)
# Where “and” joins values, the source holds several entries; their conditions need not be identical. Identical values can stand only once. Like-named read-outs stand apart in the source and are kept apart here.
# What was measured:
# α2β2γ2 GABAARs = target: T1, α2β2γ2 GABAARs (Mus musculus, UniProt P22723+P26048+P63137); format: binding, murine
# T1 construct: expressed in transfected cells; host or cells: HEK-293
# Method: (§1) Murine GABAAR α1-6, β1-3, γ2 and δ cDNAs subcloned into pRK-5 and pEGFP-C1 have been described previously ([Mortensen et al., 2011]).
# (§2) Cells were transfected with equimolar ratios of cDNAs encoding for α1–6, β1–3 and δ or γ2 GABAA receptor subunits along with eGFP using a calcium phosphate method ([Mortensen et al., 2011]) 15–45 min after plating.
# Live transfected HEK-293 cells were studied 48 h after transfection and washed with Krebs to remove cell culture media and incubated in 400 nM α-Bgtx coupled with Alexa Fluor 555 (α-Bgtx-AF555; Life Technologies) for 10 min at room temperature (RT). Cells were washed and fixed in 4% paraformaldehyde (PFA; Sigma) for 10 min at RT. The cells were imaged immediately post-fixation in saline using a Zeiss LSM 510 Meta confocal microscope and an Achroplan x40 water DIC objective (NA 0.8) as described previously ([Hannan et al., 2012]). This involved choosing the optimal z-section and acquiring images as a mean of 4 scans in 16-bits using a 543 nm Helium–Neon laser and a 560 nm long-pass filter for α-Bgtx-AF555 and a 488 Argon laser with a 505–530 nm band-pass filter for eGFP.
# Confocal images were analysed using ImageJ (version 1.410) as described previously ([Hannan et al., 2013]). For each cell the surface membrane was identified by drawing a region-of-interest (ROI) in the eGFP channel and this was transferred to the α-Bgtx-AF555 channel and the mean membrane fluorescence values were determined. Mean background fluorescence was determined from a region devoid of cells. This was subtracted from the mean membrane fluorescence providing a mean corrected fluorescence intensity value. These values, for different combinations of receptors and drugs, were graphically plotted using Origin.
# To identify the location of the α-Bgtx binding site on GABAARs, we pre-incubated HEK-293 cells expressing α2β2γ2 with a range of ligands that act at GABAARs and nAChRs, for 5 min at RT followed by co-incubation with α-Bgtx-AF555 for 10 min at RT (Fig. 4A). These ligands were selected to ‘protect by binding occupancy’ known binding site domains on GABAARs and nAChRs.
# A, Schematic of the experimental protocol. 48 hrs after transfection, HEK-293 cells expressing eGFP and α2β2γ2 were incubated in drug for 5 min at RT followed by the addition of drug +400 nM α-Bgtx-AF555 for 10 min at RT to label cell surface receptors. The cells were washed to remove the excess α-Bgtx-AF555, fixed and imaged. B, Images of cells expressing α2β2γ2, stained with α-Bgtx-AF555 in the presence of 1 mM d-Tc, 1 mM nicotine, or 1 mM carbachol. C, Mean cell surface fluorescence of α-Bgtx-AF555 bound to surface GABAARs in the presence of d-Tc, nicotine or carbachol. […] Scale bars 5 μm.
# α5β2γ2 GABAAR = target: T2, α5β2γ2 GABAAR (Mus musculus, UniProt P22723+P63137+Q8BHJ7); assay: Whole-cell GABA-activated currents in transfected HEK-293 cells (patch clamp); format: cell-based, murine
# T2 construct: expressed in transfected cells; host or cells: HEK-293
# Method: as §1, §2
# (§3) Patch electrodes had resistances of 4–5 MΩ and were filled with an internal solution containing (mM): 120 CsCl 1 MgCl2, 11 EGTA, 30 KOH, 10 HEPES, 1 CaCl2, and 2 K2ATP; pH – 7.2. HEK-293 cells were superfused with a saline solution containing (mM): 140 NaCl, 4.7 KCl, 1.2 MgCl2, 2.52 CaCl2, 11 Glucose, and 5 HEPES; pH 7.4. The saline for recording from primary neurons was supplemented with 2 mM kynurenic acid and pH adjusted to 7.4 to block all spontaneous excitatory post-synaptic currents (EPSCs). Membrane currents were filtered at 5 kHz (−3 dB, 6th pole Bessel, 36 dB/octave). HEK-293 cells were studied 48 h after transfection by voltage clamping cells at a holding potential of −20 to −40 mV with optimised series resistance (Rs, <10 MΩ) and whole-cell membrane capacitance compensation. Neuronal membrane currents were similarly recorded at a holding potential of −60 mV.
# (§4) Spontaneous inhibitory postsynaptic currents (IPSCs) were recorded from dentate gyrus granule cells (DGGCs) with the same internal solution as above. Cells were voltage clamped at −60 mV and IPSCs were recorded using 5 kHz filtering with optimal series resistance and whole-cell capacitance compensation.
# [1] = test system: dentate gyrus granule cells (DGGCs); assay: Spontaneous IPSCs in dentate gyrus granule cells of acute hippocampal slices; format: cell-based, mouse
# Method: (§5) Acute transverse brain slices were prepared from adult (P115–125) male C57BL/6J mice in accordance with the UK Animals (Scientific Procedures) Act 1986.
# (§6) The brain was rapidly removed after terminal anaesthesia with isoflurane and immersed in ice-cold slicing solution composed of (mM): 85 NaCl, 2.5 KCl, 1 CaCl2, 4 MgCl2, 1.25 NaH2PO4, 26 NaHCO3, 75 sucrose, and 25 glucose, 2 kynurenic acid, pH – 7.4. The slicing solution was continuously bubbled with 95% […] and 5% CO2. Transverse 250 μm slices containing the ventral hippocampus were cut with a Leica VT1200S vibroslicer. The slicing solution was exchanged at 37 °C for 60 min with a recording solution containing (mM): 125 NaCl, 2.5 KCl, 2 CaCl2, 1 MgCl2, 1.25 NaH2PO4, 26 NaHCO3, 2 kynurenic acid, and 25 glucose, pH 7.4.
# as §4
# IPSCs were detected and analysed using WinEDR and WinWCP (John Dempster, University of Strathclyde, UK). IPSC frequency was calculated using events detected over 60 s epochs of recording. […] This function provided the Gaussian mean amplitude current (μ) and standard deviation (σ). All the distributions were fitted using this function in Origin (Ver 6). The accuracy of the fits was checked by repeating the iterative non-linear fitting procedure after substituting the best-fit parameters obtained for the control and α-Bgtx datasets with new values.
# [2] = test system: dentate gyrus granule cells (DGGCs); assay: Tonic inhibition (holding current, RMS noise) in dentate gyrus granule cells of acute hippocampal slices; format: cell-based, mouse
# Method: as §5, §6
# For tonic inhibition, to determine the average holding currents, a 60 s continuous current recording was sampled every 1 s, discarding epochs that coincided with IPSCs. Any effect of drugs on the holding current was defined by subtracting the average holding currents in control and during drug application.
# The baseline noise (RMS) was calculated before and during drug treatment. This was estimated from a continuous (30 s) current recording, sampled every 100 ms. The median current was calculated every 5 s and values more than twice the standard deviation from the median (usually due to IPSCs) were eliminated. Baseline GABA-mediated current noise was defined by subtracting RMS values before and after drugs, e.g., α-Bgtx or bicuculline.
# [3] = test system: native hippocampal GABAARs; format: cell-based, rat
# Method: Dissociated hippocampal neurons were prepared from embryonic day 18 rat pups as described ([Hannan et al., 2012]). Briefly, hippocampi were dissected in ice-cold Hank's Balanced Salt Solution (HBSS) (Ca^2+/Mg^2+ free) before enzymatic dissociation in 0.1% (w/v) trypsin at 37 °C for 10 min followed by serial washes in pre-warmed HBSS to remove trypsin prior to trituration. Cells were mechanically dissociated using fire-polished glass Pasteur pipettes in plating medium composed of minimal essential medium (MEM) supplemented with 5% (v/v) fetal calf serum (FCS), 5% (v/v) horse serum, penicillin-G and streptomycin (200 units/ml and 200 μg/ml), 2 mM L-glutamine and 35 mM glucose. Cells were plated at a density of 10^6 per ml in plating medium on glass cover-slips previously coated with poly-D-lysine. The neurons were grown and maintained at 37 °C in a humidified 95% air/5% CO2 atmosphere.
# After plating (30 min), the medium was removed and replaced with maintenance medium composed of Neurobasal-A supplemented with 1% (v/v) B-27, penicillin-G and streptomycin (100 units/ml and 100 μg/ml), 0.5% (v/v) Glutamax and 35 mM glucose.
# as §3, §4
# α2β2γ2 GABAAR = target: T3, α2β2γ2 GABAAR (Mus musculus, UniProt P22723+P26048+P63137); assay: Whole-cell GABA-activated currents in transfected HEK-293 cells (patch clamp); format: cell-based, murine
# T3 construct: expressed in transfected cells; host or cells: HEK-293
# Method: as §1, §2, §3, §4
# α4β2δ receptors = target: T4, α4β2δ receptors (Mus musculus, UniProt P22933+P63137+Q9D6F4); assay: Whole-cell GABA-activated and leak currents in transfected HEK-293 cells (patch clamp); format: cell-based, murine
# T4 construct: expressed in transfected cells; host or cells: HEK-293
# Method: as §1, §2, §3, §4
# α2β2 receptors = target: T5, α2β2 receptors (Mus musculus, UniProt P26048+P63137); assay: Whole-cell GABA-activated currents in transfected HEK-293 cells (patch clamp); format: cell-based, murine
# T5 construct: expressed in transfected cells; host or cells: HEK-293
# Method: as §1, §2
# as §3, with “Whole-cell GABA-activated currents were recorded from transfected HEK-293 cells or hippocampal neurons in culture at 12–14 DIV using patch clamp electrophysiology. Patch” for “Patch”
# [4] = test system: GABAARs expressed in HEK293 cells; format: cell-based, murine
# α1β2γ2 GABAAR = target: T6, α1β2γ2 GABAAR (Mus musculus, UniProt P22723+P62812+P63137); assay: Whole-cell GABA-activated currents in transfected HEK-293 cells (patch clamp); format: cell-based, murine
# T6 construct: expressed in transfected cells; host or cells: HEK-293
# Method: as §1, §2, §3, §4
# α4β2γ2 GABAAR = target: T7, α4β2γ2 GABAAR (Mus musculus, UniProt P22723+P63137+Q9D6F4); format: cell-based, murine
# T7 construct: expressed in transfected cells; host or cells: HEK-293
# Method: as §1, §2
# as §3, with “HEK-293 cells were studied 48 h after transfection by voltage clamping cells at a holding potential of −20 to −40 mV with optimised series resistance (Rs, <10 MΩ) and whole-cell membrane capacitance compensation.” left out
# as §4
# [5] = 1 mM ligand, 5 min pre-incubation then + 400 nM α-Bgtx-AF555 10 min, n = 7, Fig. 4B–C
# T1 sequence (P26048 29-451): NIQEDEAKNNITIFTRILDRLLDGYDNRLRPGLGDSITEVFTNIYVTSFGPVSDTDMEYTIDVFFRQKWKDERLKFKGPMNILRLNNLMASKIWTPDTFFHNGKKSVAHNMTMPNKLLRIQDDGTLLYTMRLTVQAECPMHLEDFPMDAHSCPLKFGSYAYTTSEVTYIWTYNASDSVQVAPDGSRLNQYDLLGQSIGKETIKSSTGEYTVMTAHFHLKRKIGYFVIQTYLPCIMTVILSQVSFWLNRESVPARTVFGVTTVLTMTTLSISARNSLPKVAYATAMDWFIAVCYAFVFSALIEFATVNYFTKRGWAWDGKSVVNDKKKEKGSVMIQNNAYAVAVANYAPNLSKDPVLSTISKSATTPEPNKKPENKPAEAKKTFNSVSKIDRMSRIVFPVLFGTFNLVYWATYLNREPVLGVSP
# T1 sequence (P63137 25-512): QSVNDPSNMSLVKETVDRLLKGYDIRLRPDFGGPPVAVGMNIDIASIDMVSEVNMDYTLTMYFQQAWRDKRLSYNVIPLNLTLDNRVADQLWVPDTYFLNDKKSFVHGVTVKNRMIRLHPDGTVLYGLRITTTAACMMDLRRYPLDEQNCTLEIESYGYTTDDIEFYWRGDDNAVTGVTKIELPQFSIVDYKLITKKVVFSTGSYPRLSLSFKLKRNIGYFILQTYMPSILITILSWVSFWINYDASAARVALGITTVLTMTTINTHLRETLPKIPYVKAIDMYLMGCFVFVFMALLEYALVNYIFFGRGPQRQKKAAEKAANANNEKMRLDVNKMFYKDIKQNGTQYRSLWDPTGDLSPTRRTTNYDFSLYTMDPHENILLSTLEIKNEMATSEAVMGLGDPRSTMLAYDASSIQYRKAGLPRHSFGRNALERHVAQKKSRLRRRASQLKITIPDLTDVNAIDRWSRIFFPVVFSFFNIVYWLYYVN
# T1 sequence (P22723 39-474): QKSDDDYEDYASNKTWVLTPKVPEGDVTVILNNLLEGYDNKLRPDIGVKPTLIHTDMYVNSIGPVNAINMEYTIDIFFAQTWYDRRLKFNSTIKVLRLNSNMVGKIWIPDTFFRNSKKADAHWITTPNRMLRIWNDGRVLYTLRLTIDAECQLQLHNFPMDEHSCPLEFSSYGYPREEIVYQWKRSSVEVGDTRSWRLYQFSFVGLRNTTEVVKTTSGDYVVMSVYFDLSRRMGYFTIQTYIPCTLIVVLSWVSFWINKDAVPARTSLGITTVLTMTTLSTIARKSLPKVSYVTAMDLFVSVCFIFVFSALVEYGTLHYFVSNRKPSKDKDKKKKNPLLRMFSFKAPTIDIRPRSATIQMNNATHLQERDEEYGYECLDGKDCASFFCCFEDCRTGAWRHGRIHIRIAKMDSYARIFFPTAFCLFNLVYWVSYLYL
# T4 sequence (P22933 17-449): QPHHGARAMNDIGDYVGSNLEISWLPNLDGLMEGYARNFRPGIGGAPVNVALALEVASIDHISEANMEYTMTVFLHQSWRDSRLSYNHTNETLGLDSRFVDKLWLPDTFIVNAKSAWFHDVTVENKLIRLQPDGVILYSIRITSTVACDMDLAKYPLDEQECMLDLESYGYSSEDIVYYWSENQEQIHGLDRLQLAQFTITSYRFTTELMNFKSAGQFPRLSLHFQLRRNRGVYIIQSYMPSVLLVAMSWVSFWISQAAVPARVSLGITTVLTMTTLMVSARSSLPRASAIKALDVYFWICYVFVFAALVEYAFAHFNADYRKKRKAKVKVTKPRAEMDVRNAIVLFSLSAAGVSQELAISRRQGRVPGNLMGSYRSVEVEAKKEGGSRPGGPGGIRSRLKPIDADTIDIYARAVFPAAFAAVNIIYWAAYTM
# T4 sequence (P63137 25-512): as the sequence (P63137 25-512) above
# T4 sequence (Q9D6F4 36-552): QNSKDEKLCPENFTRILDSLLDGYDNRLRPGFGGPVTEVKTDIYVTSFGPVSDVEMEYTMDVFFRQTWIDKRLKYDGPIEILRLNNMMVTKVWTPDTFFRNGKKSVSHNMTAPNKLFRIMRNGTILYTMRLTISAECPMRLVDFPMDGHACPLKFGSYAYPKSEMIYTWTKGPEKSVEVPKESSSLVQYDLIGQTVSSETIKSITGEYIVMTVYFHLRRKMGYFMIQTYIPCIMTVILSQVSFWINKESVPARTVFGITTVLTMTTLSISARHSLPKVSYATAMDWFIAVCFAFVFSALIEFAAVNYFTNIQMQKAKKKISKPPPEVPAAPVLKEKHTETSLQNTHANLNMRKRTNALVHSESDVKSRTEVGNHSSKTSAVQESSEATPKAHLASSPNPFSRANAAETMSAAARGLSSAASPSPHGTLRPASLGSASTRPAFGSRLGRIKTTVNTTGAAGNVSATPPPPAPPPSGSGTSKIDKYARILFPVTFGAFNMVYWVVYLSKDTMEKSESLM
# T2 sequence (P22723 39-474): as the sequence (P22723 39-474) above
# T2 sequence (Q8BHJ7 32-463): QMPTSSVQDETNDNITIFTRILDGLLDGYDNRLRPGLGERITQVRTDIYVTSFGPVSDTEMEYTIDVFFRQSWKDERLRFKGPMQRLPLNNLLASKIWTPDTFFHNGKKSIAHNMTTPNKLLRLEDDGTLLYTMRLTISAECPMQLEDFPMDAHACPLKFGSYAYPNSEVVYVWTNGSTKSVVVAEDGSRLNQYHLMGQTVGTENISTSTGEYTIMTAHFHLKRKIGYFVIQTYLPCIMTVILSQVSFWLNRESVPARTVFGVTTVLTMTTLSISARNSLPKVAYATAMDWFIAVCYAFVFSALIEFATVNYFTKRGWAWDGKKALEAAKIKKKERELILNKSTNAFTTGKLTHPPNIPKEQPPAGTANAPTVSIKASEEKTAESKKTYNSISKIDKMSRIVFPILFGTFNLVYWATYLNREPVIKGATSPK
# T2 sequence (P63137 25-512): as the sequence (P63137 25-512) above
# T3 sequence (P63137 25-512): as above
# T3 sequence (P26048 29-451): as the sequence (P26048 29-451) above
# T3 sequence (P22723 39-474): as the sequence (P22723 39-474) above
# T5 sequence (P26048 29-451): as the sequence (P26048 29-451) above
# T5 sequence (P63137 25-512): as the sequence (P63137 25-512) above
# T6 sequence (P63137 25-512): as above
# T6 sequence (P22723 39-474): as the sequence (P22723 39-474) above
# T6 sequence (P62812 28-455): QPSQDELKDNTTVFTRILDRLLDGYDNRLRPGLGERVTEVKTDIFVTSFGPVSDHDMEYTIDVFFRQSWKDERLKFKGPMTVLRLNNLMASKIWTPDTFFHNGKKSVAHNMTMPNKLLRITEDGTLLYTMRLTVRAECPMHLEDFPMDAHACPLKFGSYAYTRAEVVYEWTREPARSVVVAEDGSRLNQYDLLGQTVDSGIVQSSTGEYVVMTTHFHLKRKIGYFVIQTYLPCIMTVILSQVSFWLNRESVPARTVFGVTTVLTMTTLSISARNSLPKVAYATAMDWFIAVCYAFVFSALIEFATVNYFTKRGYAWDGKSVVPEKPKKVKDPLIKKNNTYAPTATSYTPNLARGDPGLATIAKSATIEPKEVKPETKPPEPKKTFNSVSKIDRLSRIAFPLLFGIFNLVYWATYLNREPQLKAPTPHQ
# T7 sequence (P63137 25-512): as the sequence (P63137 25-512) above
# T7 sequence (P22723 39-474): as the sequence (P22723 39-474) above
# T7 sequence (Q9D6F4 36-552): as the sequence (Q9D6F4 36-552) above
compound,measurement,setting,value
"NCCCC(=O)O [GABA, γ-aminobutyric acid]",α-Bgtx-AF555 binding in presence of ligand,α2β2γ2 GABAARs,34.9 ± 7.1 % of control
same,EC50,α5β2γ2 GABAAR; n = 5,2.44 µM
"CCN1C[C@]2(COC(=O)c3ccccc3N3C(=O)C[C@H](C)C3=O)CC[C@H](OC)[C@@]34[C@@H]5C[C@H]6[C@H](OC)[C@@H]5[C@](O)(C[C@@H]6OC)[C@@](O)([C@@H](OC)[C@H]23)[C@@H]14 [MLA, methyllaconitine]",frequency of IPSCs,"[1]; 1 nM MLA, n = 5, control 4.12 ± 0.9 Hz, P > 0.05",3.75 ± 1.2 Hz
same,median IPSC amplitude,"[1]; 1 nM MLA, n = 6098 events, control −30.82 pA, P > 0.05",−30.21 pA
same,DGGC holding current,[2]; 1 nM MLA,slightly reduced
same,effect on currents activated by sub-maximal GABA,[3],< 1 % of control
same,inhibition of GABA-activated currents,"[3]; 10 μM GABA, 1 nM MLA, 1 min pre-incubation then co-applied, n = 6, P > 0.05",0.8 ± 1.7 % inhibition
same,effect on amplitude of GABA-activated currents,α2β2γ2 GABAAR; 1 nM MLA pre-applied 1 min before co-application with GABA,did not affect the amplitude
Oc1noc2c1CCNC2 [THIP],response compared with maximal GABA (1 mM),α4β2δ receptors; 300 μM THIP,superagonist ability
[Zn+2] [Zn^2+],inhibition of submaximal GABA currents by Zn^2+,α2β2 receptors,90.8 ± 4.44%
same,inhibition of submaximal GABA currents by Zn^2+,α2β2γ2 GABAAR,37.4 ± 8.9%
CN1CCc2cc3c(cc2[C@H]1[C@@H]1OC(=O)c2c1ccc1c2OCO1)OCO3 [bicuculline],RMS noise,"[2]; 50 μM bicuculline applied after α-Bgtx, n = 6, P < 0.05",2.74 ± 0.34 pA
same,average tonic current revealed (change in holding current),"[2]; 50 μM bicuculline, n = 7",9.31 ± 2.52 pA
C[N+](C)(C)CCOC(N)=O [carbachol],α-Bgtx-AF555 binding in presence of ligand,α2β2γ2 GABAARs; [5],100.5 ± 11.3 % of control
"COc1cc2c3cc1Oc1cc(ccc1O)C[C@@H]1c4c(cc(OC)c(O)c4Oc4ccc(cc4)C[C@@H]3N(C)CC2)CC[N+]1(C)C [d-Tc, d-tubocurarine]",α-Bgtx-AF555 binding in presence of ligand,"α2β2γ2 GABAARs; 1 mM d-Tc, n = 6, Fig. 4D–E",7.1 ± 1.9 % of control
same,α-Bgtx-AF555 binding in presence of ligand,α2β2γ2 GABAARs; [5],1.8 ± 1.3 % of control
same,inhibition of whole-cell GABA-activated currents,[3],92 ± 4 % inhibition
CN1CCC[C@H]1c1cccnc1 [nicotine],α-Bgtx-AF555 binding in presence of ligand,α2β2γ2 GABAARs,90.5 ± 11.4 % of control
CCCC(C)C1(CC)C(=O)NC(=O)NC1=O (centres unmarked) [pentobarbital],modulation of 1 μM GABA currents,[3]; 20 μM pentobarbital,potentiated
picrotoxin,α-Bgtx-AF555 binding in presence of ligand,α2β2γ2 GABAARs,106.7 ± 14.9 % of control
α-bungarotoxin [α-Bgtx],reduction of saturating GABA currents,[4],13.0 ± 5.9%
same,"IPSC amplitude distribution, Gaussian peak 1 mean",[1],−13.66 pA
same,"IPSC amplitude distribution, Gaussian peak 2 mean",[1],−19.01 pA
same,frequency of IPSCs,[1],2.17 ± 0.34 Hz
same,median IPSC amplitude,[1],−23.19 pA
same,RMS noise,[2],3.39 ± 0.59 pA
same,change in DGGC holding current,[2],1.27 ± 1.21 pA
same,inhibition of GABA currents,[3],33 ± 9%
same,reversibility of inhibition,[3],reversible
same,inhibition of submaximal GABA currents,α1β2γ2 GABAAR,23.8 ± 3%
same,inhibition of submaximal GABA currents,α5β2γ2 GABAAR,15.3 ± 5.9%
same,potentiation of submaximal GABA responses,α4β2δ receptors,46 ± 5% and 40 ± 6%
same,reduction in leak current in HEK-293 cells expressing α4β2δ relative to reduction of the leak in DGGCs,α4β2δ receptors,over 40 fold
same,reduction of leak current,α4β2δ receptors,56 ± 3.7 pA and 75 ± 13 pA
same,inhibition of submaximal GABA currents,α4β2γ2 GABAAR,41.3 ± 4.4%
